# Assay results from ChEMBL document CHEMBL1135452, “Side-chain homologation of nodulisporic acid: synthesis of potent new dienyl derivatives” (Bioorg Med Chem Lett, 2002).
# System: Pulicinae
# Assay: In vitro systemic flea efficacy using membrane feeding assay.
# Type: functional
row,SMILES,Activity [p.p.m.]
1,C=C(C)[C@H]1C(=O)c2c3c(cc4c5c(n1c24)[C@@]1(C)C(CC[C@H]2[C@](C)(/C=C/C=C/P(=O)(OCC)OCC)[C@@H](O)CC[C@@]21C)C5)C1=CC(C)(C)OC(C)(C)C1[C@@H]3O (some centres not stated),10
2,C=C(C)[C@H]1C(=O)c2c3c(cc4c5c(n1c24)[C@@]1(C)C(CC[C@H]2[C@](C)(/C=C/C=C(\OC)C(=O)O)[C@@H](O)CC[C@@]21C)C5)C1=CC(C)(C)OC(C)(C)C1[C@@H]3O (some centres not stated),10
3,C=CC/C(=C\C=C\[C@]1(C)[C@@H](O)CC[C@@]2(C)[C@H]1CCC1Cc3c(n4c5c(c6c(cc35)C3=CC(C)(C)OC(C)(C)C3[C@@H]6O)C(=O)[C@@H]4C(=C)C)[C@@]12C)C(=O)NC(C)(C)C (some centres not stated),10
4,C=C(C)[C@H]1C(=O)c2c3c(cc4c5c(n1c24)[C@@]1(C)C(CC[C@H]2[C@](C)(/C=C/C(C)=C/C(=O)NCC)[C@@H](O)CC[C@@]21C)C5)C1=CC(C)(C)OC(C)(C)C1[C@@H]3O (some centres not stated),10
5,C=CC/C(=C\C=C\[C@]1(C)[C@@H](O)CC[C@@]2(C)[C@H]1CCC1Cc3c(n4c5c(c6c(cc35)C3=CC(C)(C)OC(C)(C)C3[C@@H]6O)C(=O)[C@@H]4C(=C)C)[C@@]12C)C(N)=O (some centres not stated),1
6,C=C(C)[C@H]1C(=O)c2c3c(cc4c5c(n1c24)[C@@]1(C)C(CC[C@H]2[C@](C)(/C=C/C=C(\OC)C(=O)NC(C)(C)C)[C@@H](O)CC[C@@]21C)C5)C1=CC(C)(C)OC(C)(C)C1[C@@H]3O (some centres not stated),1
7,C=C(C)[C@H]1C(=O)c2c3c(cc4c5c(n1c24)[C@@]1(C)C(CC[C@H]2[C@](C)(/C=C/C(C)=C/C(=O)NC4CC4)[C@@H](O)CC[C@@]21C)C5)C1=CC(C)(C)OC(C)(C)C1[C@@H]3O (some centres not stated),1
8,C=C(C)[C@H]1C(=O)c2c3c(cc4c5c(n1c24)[C@@]1(C)C(CC[C@H]2[C@](C)(/C=C/C=C(\CCC)C(N)=O)[C@@H](O)CC[C@@]21C)C5)C1=CC(C)(C)OC(C)(C)C1[C@@H]3O (some centres not stated),10
9,C=C(C)[C@H]1C(=O)c2c3c(cc4c5c(n1c24)[C@@]1(C)C(CC[C@H]2[C@](C)(/C=C/C=C/C(=O)NCC)[C@@H](O)CC[C@@]21C)C5)C1=CC(C)(C)OC(C)(C)C1[C@@H]3O (some centres not stated),1
10,C=C(C)[C@H]1C(=O)c2c3c(cc4c5c(n1c24)[C@@]1(C)C(CC[C@H]2[C@](C)(/C=C/C=C/C(=O)N(C)C)[C@@H](O)CC[C@@]21C)C5)C1=CC(C)(C)OC(C)(C)C1[C@@H]3O (some centres not stated),0.1
11,C=C(C)[C@H]1C(=O)c2c3c(cc4c5c(n1c24)[C@@]1(C)C(CC[C@H]2[C@](C)(/C=C/C=C/C(=O)O)[C@@H](O)CC[C@@]21C)C5)C1=CC(C)(C)OC(C)(C)C1[C@@H]3O (some centres not stated),10
12,C=C(C)[C@H]1C(=O)c2c3c(cc4c5c(n1c24)[C@@]1(C)C(CC[C@H]2[C@](C)(/C=C/C=C/C(C)=O)[C@@H](O)CC[C@@]21C)C5)C1=CC(C)(C)OC(C)(C)C1[C@@H]3O (some centres not stated),10
13,C=C(C)[C@H]1C(=O)c2c3c(cc4c5c(n1c24)[C@@]1(C)C(CC[C@H]2[C@](C)(/C=C/C=C/C(=O)OC(C)(C)C)[C@@H](O)CC[C@@]21C)C5)C1=CC(C)(C)OC(C)(C)C1[C@@H]3O (some centres not stated),10
14,C=C(C)[C@H]1C(=O)c2c3c(cc4c5c(n1c24)[C@@]1(C)C(CC[C@H]2[C@](C)(/C=C/C=C(\CCCC)C(=O)NCC)[C@@H](O)CC[C@@]21C)C5)C1=CC(C)(C)OC(C)(C)C1[C@@H]3O (some centres not stated),1
15,C=C(C)[C@H]1C(=O)c2c3c(cc4c5c(n1c24)[C@@]1(C)C(CC[C@H]2[C@](C)(/C=C/C=C(\CC)C(=O)N4CCCC4)[C@@H](O)CC[C@@]21C)C5)C1=CC(C)(C)OC(C)(C)C1[C@@H]3O (some centres not stated),10
16,C=C(C)[C@H]1C(=O)c2c3c(cc4c5c(n1c24)[C@@]1(C)C(CC[C@H]2[C@](C)(/C=C/C=C(\F)C(=O)NC(C)(C)C)[C@@H](O)CC[C@@]21C)C5)C1=CC(C)(C)OC(C)(C)C1[C@@H]3O (some centres not stated),1
17,C=C(C)[C@H]1C(=O)c2c3c(cc4c5c(n1c24)[C@@]1(C)C(CC[C@H]2[C@](C)(/C=C/C=C(\CC)C(N)=O)[C@@H](O)CC[C@@]21C)C5)C1=CC(C)(C)OC(C)(C)C1[C@@H]3O (some centres not stated),1
